We go through ten molecules from patent US6001829A, “Fluoropropenyl oxadiazoles and the use thereof as pest control agents” (Bayer Aktiengesellschaft, priority 1995, dated 1999).

Each structure is given as a SMILES string. Where two headings read alike, the source gives them in different places. A value given as a limit tells only on which side of the number the result lay.

Data set [1] is described as follows: log p: n-octanol/water partition coefficient determined by reverse phase HPLC analysis using H2O/CH3CN. The format is physicochemical. From the text: *log p: logarithm to base ten of the noctanol/water partition coefficient
determined by reverse phase HPLC analysis using H2 O/CH3 CN.

Another data set deals with Meloidogyne incognita. Put plainly: Critical Concentration Test/Nematodes. The class given is in vivo. Conditions: 20 ppm active compound in soil; after four weeks; lettuce roots (root galls). Here is the method: Critical Concentration Test/Nematodes
Solvent: 4 parts by weight of acetone
(§1) Emulsifier: 1 part by weight of alkylaryl polyglycol ether
To produce a suitable preparation of active compound, 1 part by weight of active compound is mixed with the stated amount of solvent, the stated amount of emulsifier is added and the concentrate is diluted with water to the desired concentration.
The active compound preparation is intimately mixed with soil which is heavily infested with the test nematodes. The active compound concentration in the preparation is immaterial, only the amount of active compound per unit volume of soil, which is given in ppm (=mg/l), matters. The treated soil is transferred into pots, lettuce seeds are sown, and the pots are kept at a greenhouse temperature of 25° C.
After four weeks, the lettuce roots are checked for infestation with nematodes (root galls) and the efficacy of the active compound in % is determined. The efficacy is 100% when infestation is avoided completely and 0% when the infestation level is just as high as in the control plants in untreated, but equally infested, soil.

Data set [2] deals with caterpillars of the diamond back moth (Plutella xylostella). Put plainly: Plutella Test. The format is in vivo. Conditions: 168 h, 0.1% active compound, after 7 days, dipped cabbage leaves, read-out: kill. How it is done:
(§2) Solvent: 7 parts by weight of dimethylformamide
as §1
(§3) To produce a suitable preparation of active compound, 1 part by weight of active compound is mixed with the stated amount of solvent and the stated amount of emulsifier, and the concentrate is diluted with water to the desired concentration.
Cabbage leaves (Brassica oleracea) are treated by being dipped into the active compound preparation of the desired concentration and are populated with caterpillars of the diamond back moth (Plutella xylostella) while the leaves are still moist.
(§4) After the desired period of time, the kill in % is determined. 100% means that all the caterpillars have been killed, 0% means that none of the caterpillars have been killed.

Data set [3] concerns Boophilus Microplus Resistent/SP-Resistent Parkhurst Strain. In words: Test with Boophilus Microplus Resistent/SP-Resistent Parkhurst Strain. The class given is in vivo. Conditions: 200 μg/animal; injected into the abdomen; adult females which have sucked themselves full. How it is done: Test with Boophilus Microplus Resistent/SP-Resistent Parkhurst Strain
Adult females which have sucked themselves full […]
The test is carried out in 5 replications. I μl of the solutions is injected into the abdomen, and the animals are transferred into dishes and kept in an air-conditioned room. The activity is determined via the inhibition of oviposition. 100% means that no tick has deposited eggs.

Data set [4] concerns larvae of the green rice leaf hopper (Nephotettix cincticeps). Put plainly: Nephotettix Test. The class given is in vivo. Conditions: 144 h, read-out: kill. How it is done: as §2, §1, §3
Rice seedlings (Oryzae sativa) are treated by being dipped into the active compound preparation of the desired concentration and are populated with larvae of the green rice leaf hopper (Nephotettix cincticeps) while the seedlings are still moist.
After the desired period of time, the kill in % is determined. 100% means that all the leaf hoppers have been killed; 0% means that none of the leaf hoppers have been killed.

In data set [5] the test system is mustard beetle larvae (Phaedon cochleariae). Put plainly: Phaedon Larvae Test. Conditions: 168 h, 0.1% active compound, after 7 days, dipped cabbage leaves, read-out: kill. The class given is in vivo. Here is the method: as §2, §1, §3
Cabbage leaves (Brassica oleracea) are treated by being dipped into the active compound preparation of the desired concentration and are populated with mustard beetle larvae (Phaedon cochleariae) while the leaves are still moist.
After the desired period of time, the kill in % is determined. 100% means that all the beetle larvae have been killed, 0% means that none of the beetle larvae have been killed.

Data set [6] concerns black bean aphid (Aphis fabae). In words: Myzus Test (Duration of Activity after Spraying). The class given is in vivo. Conditions: 0.1% active compound, dipped bean shoots, time not stated, read-out: kill. How it is done:
Myzus Test (Duration of Activity after Spraying)
as §2, §1, §3
Bean shoots (Vicia faba) which are heavily infested by the black bean aphid (Aphis fabae) are treated by being dipped into the active compound preparation of the desired concentration.
After the desired period of time, the kill in % is determined. 100% means that all aphids have been killed, 0% means that none of the aphids have been killed.

The subject of data set [7] is caterpillars of the owlet moth Spodoptera frugiperda. Put plainly: Spodoptera Test. The class given is in vivo. The settings on record: 168 h, 0.1% active compound, after 7 days, dipped cabbage leaves, read-out: kill. How it is done:
as §2, §1, §3
Cabbage leaves (Brassica oleracea) are treated by being dipped into the active compound preparation of the desired concentration and are populated with caterpillars of the owlet moth Spodoptera frugiperda) while the leaves are still moist.
as §4

Data set [8] has as its system all larval stages of Lucilia cuprina (OP resistent). Put plainly: Test with Fly Larvae/Development-Inhibitory Action. The format is in vivo. Conditions: 1000 ppm active compound, on horse meat, larvicidal effect after 48 h. Here is the method: Test with Fly Larvae/Development-Inhibitory Action
all larval stages of Lucilia cuprina (OP resistent)
[pupae and adults (without contact with the active
Solvent: 35 parts by weight of ethylene glycol monomethyl ether
35 parts by weight of nonylphenol polyglycol ether
To produce a suitable preparation, 3 parts by weight of the active compound are mixed with 7 parts by weight of the abovementioned solvent-emulsifier mixture, and the resulting emulsion concentrate is diluted with water to the concentration desired in each case.
For each concentration, 30 to 50 larvae are introduced into a test tube which contains horse meat (1 cm^3). 500 μl of the dilution to be tested are pipetted onto this horse meat. The test tubes are placed in plastic beakers whose bottom is covered with sea sand, and kept in an air-conditioned room (26° C.±1.5° C., 70%±10% relative humidity). The activity is examined (larvicidal action) after 24 hours and 48 hours. After emergence of the larvae (about 72 h), the test tubes are removed and perforated plastic lids are fitted onto the beakers. After 1.5 times the development time (hatching of control flies), the hatched flies and the pupae/cocoons are counted.
The activity criterion is the incidence of death in the treated larvae after 48 h (larvicidal effect), or the inhibition of hatching of adults from pupae or the inhibition of pupae formation. The criterion for the in vitro activity of a substance is the inhibition of the development of the […], or a development standstill before the adult stage. 100% larvicidal action means that all the larvae have been killed after 48 hours. 100% development-inhibitory action means that no adult flies have hatched.

Molecule `FC(F)=C(F)Cc1nnc(-c2cccs2)o1` [Example 10] returned a chromatographic logP in [1] (pH 7.5) of 2.19. In the data set with Meloidogyne incognita, the efficacy is listed as 100%.

In data set [1] (pH 7.5), `COc1ccc(-c2nnc(CC(F)=C(F)F)o2)cc1` [Example 8] came in with a chromatographic logP of 2.46. In data set [2], the mortality at 0.1 % strength is not below 90%.

`FC(F)=C(F)Cc1nc(CCl)no1` [Example 4] had a chromatographic logP in data set [1] (pH not stated) of 2.08.

As to `Cc1ccc(-c2noc(CC(F)=C(F)F)n2)cc1` [Example 1, 3-(4-methylphenyl)-5-(2,3,3-trifluoroprop-2-enyl)-1,2,4-oxadiazole], the “activity (inhibition of oviposition)” value in data set [3] is 100%. Moreover, the mortality at 0.1 % strength in data set [4] is 100%; in data set [5], 100%; in [6], 90%; in data set [7], not below 85%; in data set [2] it was not below 90%.

Regarding `FC(F)=C(F)Cc1nc(-c2ccccc2)no1` [Example 7], the mortality at 0.1 % strength was 100% in data set [5], not below 85% in data set [7] and not below 90% in data set [2]. The chromatographic logP in data set [1] (pH 2) worked out at 3.2. Besides, in data set [8], the inhibition at 1000 ppm came out at 100%.

As to `FC(F)=C(F)Cc1nnc(-c2ccco2)o1` [Example 9], the chromatographic logP in data set [1] (pH 7.5) turned out to be 1.89.

In the case of `FC(F)=C(F)Cc1nnc(-c2ccc(Cl)cc2)o1` [Example 2, 2-(4-chlorophenyl)-5-(2,3,3-trifluoroprop-2-enyl)-1,3-4-oxadiazole], the mortality at 0.1 % strength in data set [4] is 100%; in data set [5], 100%; in [6] it was 80%; in [2], not below 90%.

`FC(F)=C(F)Cc1nc(-c2cc(Cl)cc(Cl)c2)no1` [Example 6] yielded a chromatographic logP in [1] (pH 2) of 4.72.

With `FC(F)=C(F)Cc1nc(-c2c(Cl)cccc2Cl)no1` [Example 3], the mortality at 0.1 % strength in data set [4] (0.1% active compound, after 6 days, dipped rice seedlings) was 100%; in [7], not below 85%; in data set [2], not below 90%. In data set [1] (pH 2), the chromatographic logP worked out at 3.44. In data set [8], this molecule had an inhibition at 1000 ppm of 100%.

As for `FC(F)=C(F)Cc1nc(-c2ccccc2Cl)no1` [Example 5], in data set [1] (pH 2), the chromatographic logP was 3.3. This molecule also came in with an inhibition at 1000 ppm in data set [8] of 100%. Moreover, the mortality at 0.1 % strength in data set [2] was not below 90%.
